These results are taken from patent US20030186967A1, “Acylresorcinol derivatives are selective vitronectin receptor inhibitors” (American Home Products Corporation, priority 1998, published 2003).

T1 sequence (P06756 31-889 limits assumed): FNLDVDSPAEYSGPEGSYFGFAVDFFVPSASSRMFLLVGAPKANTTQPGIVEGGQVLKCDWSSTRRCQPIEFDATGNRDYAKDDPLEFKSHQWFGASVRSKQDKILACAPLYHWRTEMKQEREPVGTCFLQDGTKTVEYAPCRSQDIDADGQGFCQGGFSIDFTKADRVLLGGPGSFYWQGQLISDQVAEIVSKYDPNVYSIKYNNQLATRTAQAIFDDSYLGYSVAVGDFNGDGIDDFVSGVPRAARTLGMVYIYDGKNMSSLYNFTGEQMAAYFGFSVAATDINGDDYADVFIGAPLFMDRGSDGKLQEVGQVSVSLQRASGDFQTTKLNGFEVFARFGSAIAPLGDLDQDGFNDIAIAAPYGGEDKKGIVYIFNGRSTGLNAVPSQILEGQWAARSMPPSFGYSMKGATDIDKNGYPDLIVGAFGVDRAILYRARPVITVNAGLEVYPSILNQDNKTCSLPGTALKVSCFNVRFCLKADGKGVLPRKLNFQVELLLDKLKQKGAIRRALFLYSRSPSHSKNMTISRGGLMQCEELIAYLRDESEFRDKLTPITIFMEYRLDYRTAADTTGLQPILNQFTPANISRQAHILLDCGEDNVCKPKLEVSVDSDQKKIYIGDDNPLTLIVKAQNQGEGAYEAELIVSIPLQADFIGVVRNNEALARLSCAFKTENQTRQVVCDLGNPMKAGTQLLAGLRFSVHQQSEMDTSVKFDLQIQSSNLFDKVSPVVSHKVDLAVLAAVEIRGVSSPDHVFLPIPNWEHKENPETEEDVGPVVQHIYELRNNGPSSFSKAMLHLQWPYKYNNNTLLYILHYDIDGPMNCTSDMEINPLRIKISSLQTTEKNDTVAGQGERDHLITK
T1 sequence (P06756 891-1048 partner limits assumed): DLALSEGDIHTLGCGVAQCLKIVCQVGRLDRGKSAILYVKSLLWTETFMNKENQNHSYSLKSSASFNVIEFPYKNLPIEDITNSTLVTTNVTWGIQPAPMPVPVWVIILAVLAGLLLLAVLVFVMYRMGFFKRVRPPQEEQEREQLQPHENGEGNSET
T1 sequence (P05106 27-788): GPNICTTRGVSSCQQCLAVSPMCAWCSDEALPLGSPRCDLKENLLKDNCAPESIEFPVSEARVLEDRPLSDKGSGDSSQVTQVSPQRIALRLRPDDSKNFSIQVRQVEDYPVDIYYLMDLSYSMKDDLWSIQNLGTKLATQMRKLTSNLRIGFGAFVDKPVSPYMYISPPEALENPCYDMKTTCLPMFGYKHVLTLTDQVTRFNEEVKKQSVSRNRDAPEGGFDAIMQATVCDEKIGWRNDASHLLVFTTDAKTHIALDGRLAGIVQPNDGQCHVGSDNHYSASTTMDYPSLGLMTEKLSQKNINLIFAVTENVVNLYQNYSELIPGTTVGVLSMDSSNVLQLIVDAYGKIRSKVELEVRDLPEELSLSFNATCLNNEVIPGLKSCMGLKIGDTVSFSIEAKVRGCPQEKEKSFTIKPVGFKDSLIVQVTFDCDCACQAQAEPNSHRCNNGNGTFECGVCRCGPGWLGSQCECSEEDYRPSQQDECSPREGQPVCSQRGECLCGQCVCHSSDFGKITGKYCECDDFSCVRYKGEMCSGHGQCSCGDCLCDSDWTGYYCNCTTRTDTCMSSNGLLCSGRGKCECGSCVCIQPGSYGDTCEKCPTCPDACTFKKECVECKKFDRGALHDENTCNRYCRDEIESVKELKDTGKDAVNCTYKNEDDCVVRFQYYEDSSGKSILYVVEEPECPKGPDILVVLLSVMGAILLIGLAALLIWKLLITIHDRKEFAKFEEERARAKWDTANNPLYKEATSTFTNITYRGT

This assay addresses T1, Vitronectin receptor αVβ3 (Homo sapiens, UniProt P05106+P06756).
T1 construct: expressed in transfected cells; host or cells: 512P5 cells (plasma membrane preparation)
As to the kind of experiment: Vitronectin Receptor αVβ3 Binding Assay. Conditions: read-out: VnR (IC50μM).
For `O=C(Nc1ccccc1Br)N[C@@H](CNC(=O)c1ccc(OCCNc2ncccn2)cc1O)C(=O)O` [Example 81, (2S)-2-{[(2-bromoanilino)carbonyl]amino}-3-({2-hydroxy-4-[2-(pyrimidin-2-ylamino)ethoxy]benzoyl}amino)propanoic acid], the IC50 is over 1 µM.
`O=C(Nc1ccccc1-c1ccccc1)N[C@@H](CNC(=O)c1ccc(OCCNc2ncccn2)cc1O)C(=O)O` [Example 82, (2S)-2-{[([1,1′-biphenyl]-2-ylamino)carbonyl]amino}-3-({2-hydroxy-4-[2-(pyrimidin-2-ylamino)ethoxy]benzoyl}amino)propanoic acid]: the IC50 is over 1 µM.
As for `Cc1ccc(NC(=O)N[C@@H](CNC(=O)c2ccc(OCCNc3ncccn3)cc2O)C(=O)O)cc1` [Example 83, (2S)-3-({2-hydroxy-4-[2-(pyrimidin-2-ylamino)ethoxy]benzoyl}amino)-2-[(4-toluidinocarbonyl)amino]propanoic acid], the figure is over 1 µM; as for `O=C(Nc1ccc(OC(F)(F)F)cc1)N[C@@H](CNC(=O)c1ccc(OCCNc2ncccn2)cc1O)C(=O)O` [Example 85, (2S)-3-({2-hydroxy-4-[2-(pyrimidin-2-ylamino)ethoxy]benzoyl}amino)-2-({[4-(trifluoromethoxy)anilino]carbonyl}amino)propanoic acid], over 1 µM.
As for `O=C(Nc1ccc(Cl)cc1)N[C@@H](CNC(=O)c1ccc(OCCNc2ncccn2)cc1O)C(=O)O` [Example 86, (2S)-2-{[(4-chloroanilino)carbonyl]amino}-3-({2-hydroxy-4-[2-(pyrimidin-2-ylamino)ethoxy]benzoyl}amino)propanoic acid], the figure is over 1 µM; as for `O=C(Nc1ccc(F)cc1)N[C@@H](CNC(=O)c1ccc(OCCNc2ncccn2)cc1O)C(=O)O` [Example 87, (2S)-2-{[(4-fluoroanilino)carbonyl]amino}-3-({2-hydroxy-4-[2-(pyrimidin-2-ylamino)ethoxy]benzoyl}amino)propanoic acid], over 1 µM.
As for `CC(=O)c1ccc(NC(=O)N[C@@H](CNC(=O)c2ccc(OCCNc3ncccn3)cc2O)C(=O)O)cc1` [Example 88, (2S)-2-{[(4-acetylanilino)carbonyl]amino}-3-({2-hydroxy-4-[2-(pyrimidin-2-ylamino)ethoxy]benzoyl}amino)propanoic acid], the figure is over 1 µM.
Regarding `O=C(NC1CCCCC1)N[C@@H](CNC(=O)c1ccc(OCCNc2ncccn2)cc1O)C(=O)O` [Example 90, (2S)-2-{[(cyclohexylamino)carbonyl]amino}-3-({2-hydroxy-4-[2-(pyrimidin-2-ylamino)ethoxy]benzoyl}amino)propanoic acid], the IC50 is over 1 µM.
`O=C(NCc1ccccc1)N[C@@H](CNC(=O)c1ccc(OCCNc2ncccn2)cc1O)C(=O)O` [Example 92, (2S)-2-{[(benzylamino)carbonyl]amino}-3-({2-hydroxy-4-[2-(pyrimidin-2-ylamino)ethoxy]benzoyl}amino)propanoic acid]: the IC50 was over 1 µM.
As for `O=C(NCCc1ccccc1)N[C@@H](CNC(=O)c1ccc(OCCNc2ncccn2)cc1O)C(=O)O` [Example 93, (2S)-3-({2-hydroxy-4-[2-(pyrimidin-2-ylamino)ethoxy]benzoyl}amino)-2-({[(2phenylethyl)amino]carbonyl}amino)propanoic acid], the figure is over 1 µM; as for `CCCCCCCCNC(=O)N[C@@H](CNC(=O)c1ccc(OCCNc2ncccn2)cc1O)C(=O)O` [Example 94, (2S)-3-({2-hydroxy-4-[2-(pyrimidin-2-ylamino)ethoxy]benzoyl}amino)-2-{[(octylamino)carbonyl]amino}propanoic acid], over 1 µM.
For `CC(C)(C)COC(=O)N[C@@H](CNC(=O)c1ccc(OCCNC2=NCCN2)cc1O)C(=O)O` [Example 95], the IC50 turned out to be 0.105 µM.
As for `O=C(N[C@@H](CNC(=O)c1ccc(OCCNC2=NCCN2)cc1O)C(=O)O)OCc1ccccc1` [Example 96, (2S)-2-{[(benzyloxy)carbonyl]amino}-3-({4-[2-(4,5-dihydro-1H-imidazol-2-ylamino)ethoxy]-2-hydroxybenzoyl}amino)propanoic acid], the figure is 0.119 µM; as for `COC(=O)N[C@@H](CNC(=O)c1ccc(OCCNC2=NCCN2)cc1O)C(=O)O` [Example 97, (2S)-3-({4-[2-(4,5-dihydro-1H-imidazol-2-ylamino)ethoxy]-2-hydroxybenzoyl}-amino)-2-[(methoxycarbonyl)amino]propanoic acid], 0.77 µM.
As for `CCOC(=O)N[C@@H](CNC(=O)c1ccc(OCCNC2=NCCN2)cc1O)C(=O)O` [Example 98, (2S)-3-({4-[2-(4,5-dihydro-1H-imidazol-2-ylamino)ethoxy]-2-hydroxybenzoyl}-amino)-2-[(ethoxycarbonyl)amino]propanoic acid], the figure is 0.15 µM; as for `CCCOC(=O)N[C@@H](CNC(=O)c1ccc(OCCNC2=NCCN2)cc1O)C(=O)O` [Example 99, (2S)-3-({4-[2-(4,5-dihydro-1H-imidazol-2-ylamino)ethoxy]-2-hydroxybenzoyl}-amino)-2-[(propoxycarbonyl)amino]propanoic acid], 0.088 µM.
As for `CC(C)OC(=O)N[C@@H](CNC(=O)c1ccc(OCCNC2=NCCN2)cc1O)C(=O)O` [Example 100, (2S)-3-({4-[2-(4,5-dihydro-1H-imidazol-2-ylamino)ethoxy]-2-hydroxybenzoyl}-amino)-2-[(isopropoxycarbonyl)amino]propanoic acid], the IC50 stood at 0.079 µM.
As for `C=CCOC(=O)N[C@@H](CNC(=O)c1ccc(OCCNC2=NCCN2)cc1O)C(=O)O` [Example 101, (2S)-2-{[(allyloxy)carbonyl]amino}-3-({4-[2-(4,5-dihydro-1H-imidazol-2-ylamino)-ethoxy]-2-hydroxybenzoyl}amino)propanoic acid], the figure is 0.094 µM; as for `C=CCCOC(=O)N[C@@H](CNC(=O)c1ccc(OCCNC2=NCCN2)cc1O)C(=O)O` [Example 102, (2S)-2-{[(but-3-enyloxy)carbonyl]amino}-3-({4-[2-(4,5-dihydro-1H-imidazol-2-ylamino)ethoxy]-2-hydroxybenzoyl}amino)propanoic acid], 0.069 µM; as for `C#CCOC(=O)N[C@@H](CNC(=O)c1ccc(OCCNC2=NCCN2)cc1O)C(=O)O` [Example 103, (2S)-3-({4-[2-(4,5-dihydro-1H-imidazol-2-ylamino)ethoxy]-2-hydroxybenzoyl}-amino)-2-{[(prop-2-ynyloxy)carbonyl]amino}propanoic acid], 0.21 µM.
In the case of `CCCCCCOC(=O)N[C@@H](CNC(=O)c1ccc(OCCNC2=NCCN2)cc1O)C(=O)O` [Example 104, (2S)-3-({4-[2-(4,5-dihydro-1H-imidazol-2-ylamino)ethoxy]-2-hydroxybenzoyl}-amino)-2-{[(hexyloxy)carbonyl]amino}propanoic acid], the IC50 came to 0.086 µM.
As for `CCCCCCCCOC(=O)N[C@@H](CNC(=O)c1ccc(OCCNC2=NCCN2)cc1O)C(=O)O` [Example 105, (2S)-3-({4-[2-(4,5-dihydro-1H-imidazol-2-ylamino)ethoxy]-2-hydroxybenzoyl}-amino)-2-{[(octyloxy)carbonyl]amino}propanoic acid], the figure is 0.135 µM; as for `CCCCOC(=O)N[C@@H](CNC(=O)c1ccc(OCCNC2=NCCN2)cc1O)C(=O)O` [Example 106, (2S)-2-[(butoxycarbonyl)amino]-3-({4-[2-(4,5-dihydro-1H-imidazol-2-ylamino)ethoxy]-2-hydroxybenzoyl}amino)propanoic acid], 0.114 µM.
As for `CC(C)COC(=O)N[C@@H](CNC(=O)c1ccc(OCCNC2=NCCN2)cc1O)C(=O)O` [Example 107, (2S)-3-({4-[2-(4,5-dihydro-1H-imidazol-2-ylamino)ethoxy]-2-hydroxybenzoyl}-amino)-2-[(isobutoxycarbonyl)amino]propanoic acid], the figure is 0.13 µM; as for `CCCCNC(=O)N[C@@H](CNC(=O)c1ccc(OCCNC2=NCCN2)cc1O)C(=O)O` [Example 108, (2S)-2-{[(butylamino)carbonyl]amino}-3-({4-[2-(4,5-dihydro-1H-imidazol-2-ylamino)ethoxy]-2-hydroxybenzoyl}amino)propanoic acid], 1.1 µM.
As for `CCCCCCNC(=O)N[C@@H](CNC(=O)c1ccc(OCCNC2=NCCN2)cc1O)C(=O)O` [Example 109, (2S)-3-({4-[2-(4,5-dihydro-1H-imidazol-2-ylamino)ethoxy]-2-hydroxybenzoyl}-amino)-2-{[(hexylamino)carbonyl]amino}propanoic acid], the figure is 0.251 µM; as for `CCCCCCCCNC(=O)N[C@@H](CNC(=O)c1ccc(OCCNC2=NCCN2)cc1O)C(=O)O` [Example 110, (2S)-3-({4-[2-(4,5-dihydro-1H-imidazol-2-ylamino)ethoxy]-2-hydroxybenzoyl}-amino)-2-{[(octylamino)carbonyl]amino}propanoic acid], 0.544 µM.
Regarding `C=CCNC(=O)N[C@@H](CNC(=O)c1ccc(OCCNC2=NCCN2)cc1O)C(=O)O` [Example 111, (2S)-2-{[(allylamino)carbonyl]amino}-3-({4-[2-(4,5-dihydro-1H-imidazol-2-ylamino)ethoxy]-2-hydroxybenzoyl}amino)propanoic acid], the IC50 turned out to be 0.856 µM.
Consider `O=C(NC1CCCCC1)N[C@@H](CNC(=O)c1ccc(OCCNC2=NCCN2)cc1O)C(=O)O` [Example 112, (2S)-2-{[(cyclohexylamino)carbonyl]amino}-3-({4-[2-(4,5-dihydro-1H-imidazol-2-ylamino)ethoxy]-2-hydroxybenzoyl}amino)propanoic acid], for which the IC50 amounted to 1.09 µM.
Regarding `O=C(NCc1ccccc1)N[C@@H](CNC(=O)c1ccc(OCCNC2=NCCN2)cc1O)C(=O)O` [Example 113, (2S)-2-{[(benzylamino)carbonyl]amino}-3-({^4-[2-(4,5-dihydro-1H-imidazol-2-ylamino)ethoxy]-2-hydroxybenzoyl}amino)propanoic acid], the IC50 amounted to 3.03 µM.
As for `COc1ccccc1NC(=O)N[C@@H](CNC(=O)c1ccc(OCCNC2=NCCN2)cc1O)C(=O)O` [Example 115, (2S)-3-({4-[2-(4,5-dihydro-1H-imidazol-2-ylamino)ethoxy]-2-hydroxybenzoyl}-amino)-2-{[(2-methoxyanilino)carbonyl]amino}propanoic acid], the figure is 0.258 µM.
